# Assays:
# [1] = Acute toxicity, single oral administration to mice; settings: mouse, in vivo
# From the text: The results which have been obtained with representative members of the class of compound defined by general formula I in the experiments described previously are compiled in the following Table. Moreover, the Table contains data concerning the acute toxicity of some of these compounds (LD50 in mg/kg in the case of single oral administration to mice).
# [2] = test system: spasmodic seizures caused by pentetrazole; assay: Antipentetrazole test (anticonvulsant); format: in vivo; settings: Rattus norvegicus, po, 0.5 h; female rats 60-80 g, p.o., 30 minutes before 120 mg/kg pentetrazole i.p.; protects 50% of animals
# Protocol: The central properties of the compounds of formula I in accordance with the invention can be determined, for example, in the antipentetrazole test which is described hereinafter and which is generally recognized for recording anticonvulsant properties.
# In this animal experiment the compound under investigation is administered orally to female rats weighing 60-80 g and 30 minutes later there are administered i.p. 120 mg/kg of pentetrazole, which causes emprosthotonus and tonic stretchings of the fore and/or hind limbs in unprotected experimental animals 1-4 minutes after the injection. Ten experimental animals are used per dosage of test substance. After counting the protected experimental animals the ED50 is determined according to the Probit method. The ED50 is that dosage which protects 50% of the experimental animals from the spasmodic seizures caused by pentetrazole.
# [3] = biological target: central benzodiazepine receptors; assay: Inhibition of binding of tritiated diazepam at specific benzodiazepine receptors in the cerebral cortex; settings: 50 percent inhibition of specific binding of tritiated diazepam
# Protocol: The affinity of compounds of general formula I to the central benzodiazepine receptors was determined according to the method described in Life Science 20, 2101-2110 (1977) and Science 198, 849-851 ([…]). According to this method, the inhibition of the binding of tritiated diazepam at the specific benzodiazepine receptors in the cerebral cortex by the respective test substances is ascertained. The IC50 ("50% inhibiting concentration") is that concentration of the respective test substance which brings about a 50 percent inhibition of the specific binding of the tritiated diazepam at the specific benzodiazepine receptors in the cerebral cortex.
Structure (SMILES),LD50 [1],ED50 [2],IC50 [3]
Cc1noc(-c2ncn3c2[C@@H]2CCCN2C(=O)c2c(Cl)cccc2-3)n1,2000 to 4000 mg/kg,0.08 mg/kg,2.3 nM
Cc1nnc(-c2ncn3c2[C@@H]2CCCN2C(=O)c2c(Cl)cccc2-3)o1,312 to 625 mg/kg,2.7 mg/kg,8.4 nM
Cc1noc(-c2ncn3c2CN(C)C(=O)c2c(Cl)cccc2-3)n1,1250 to 2500 mg/kg,0.43 mg/kg,3.9 nM
O=C1c2c(Cl)cccc2-n2cnc(-c3noc(C(F)(F)F)n3)c2[C@@H]2CCCN12,–,1.2 mg/kg,9.6 nM
CN1Cc2c(-c3nc(C4CC4)no3)ncn2-c2cccc(Cl)c2C1=O,–,0.034 mg/kg,4.5 nM
O=C1c2c(Cl)cccc2-n2cnc(-c3nc(C4CC4)no3)c2[C@@H]2CCCN12,1250 to 2500 mg/kg,0.2 mg/kg,2.2 nM
CN1Cc2c(-c3nc(C4CC4)no3)ncn2-c2ccc(F)cc2C1=O,–,0.23 mg/kg,5.6 nM
COCc1noc(-c2ncn3c2[C@@H]2CCCN2C(=O)c2c(Cl)cccc2-3)n1,–,0.39 mg/kg,5.2 nM
Cc1noc(-c2ncn3c2C2CCN2C(=O)c2c(Cl)cccc2-3)n1 (racemic),–,0.32 mg/kg,10 nM
"Cc1noc(-c2ncn3c2[C@@H]2CCCN2C(=O)c2c-3ccc(F)c2Cl)n1 [Example 4, (S)-8-chloro-7-fluoro-11,12,13,13a-tetrahydro-1-(3-methyl-1,2,4-oxadiazol-5-yl)-9H-imidazo[1,5-a]pyrrolo[2,1-c][1,4]benzodiazepin-9-one]",1250 to 2500 mg/kg,0.082 mg/kg,5.2 nM
"Cc1noc(-c2ncn3c2[C@@H]2CCCN2C(=O)c2c(Br)cccc2-3)n1 [Example 5, (S)-8-bromo-11,12,13,13a-tetrahydro-1-(3-methyl-1,2,4-oxadiazol-5-yl)9H-imidazo[1,5-a]pyrrolo[2,1-c][1,4] benzodiazepin-9-one]",2500 to 5000 mg/kg,0.068 mg/kg,2.1 nM
"Cc1noc(-c2ncn3c2[C@@H]2CCN2C(=O)c2c-3cccc2C(F)(F)F)n1 [Example 9, (S)-12,12a-dihydro-1-(3-methyl-1,2,4-oxadiazol-5-yl)-8-(trifluoromethyl)-9H,11H-azeto[2,1-c]imidazo[1,5-a][1,4]benzodiazepin-9-one]",–,0.021 mg/kg,3.7 nM
"CON=Cc1ncn2c1[C@@H]1CCN1C(=O)c1c(Cl)cccc1-2 [Example 23, (S)-8-chloro-12,12a-dihydro-9-oxo-9H,11H-azeto[2,1-c]imidazo[1,5-a][1,4]benzodiazepine-1-carboxaldehyde O-methyl oxime]",–,0.63 mg/kg,10 nM

# From patent US4775671A, “Imidazodiazepines” (Hoffmann-La Roche Inc., priority 1984, dated 1988)
